≈ marks a conversion by molar mass, not a printed value.
Tests used:
[1] = target: T1, PBP3 from Acinetobacter baumannii (ATCC 19606) (Acinetobacter baumannii, UniProt A0ABX6CK25); experiment: Bocillin-FL fluorescence polarization competition binding, A. baumannii PBP3; details: fluorescence polarization competition binding assay using Bocillin-FL; read-out: A. baumannii PBP3 Potency
T1 sequence (A0ABX6CK25 64-610): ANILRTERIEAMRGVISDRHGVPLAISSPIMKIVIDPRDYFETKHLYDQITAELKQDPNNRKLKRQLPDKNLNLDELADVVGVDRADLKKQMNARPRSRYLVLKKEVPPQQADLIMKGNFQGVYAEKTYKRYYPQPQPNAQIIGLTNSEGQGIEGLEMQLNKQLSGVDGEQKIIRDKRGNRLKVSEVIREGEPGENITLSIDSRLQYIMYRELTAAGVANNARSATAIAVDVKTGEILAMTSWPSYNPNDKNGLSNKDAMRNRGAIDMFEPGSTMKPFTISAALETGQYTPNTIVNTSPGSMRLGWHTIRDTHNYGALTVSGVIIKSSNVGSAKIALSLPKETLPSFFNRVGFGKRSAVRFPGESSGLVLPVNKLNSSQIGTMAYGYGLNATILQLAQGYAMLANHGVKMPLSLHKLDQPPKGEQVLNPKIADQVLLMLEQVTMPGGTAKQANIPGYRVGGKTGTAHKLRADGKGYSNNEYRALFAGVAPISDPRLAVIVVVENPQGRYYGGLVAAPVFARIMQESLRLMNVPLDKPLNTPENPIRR
Outline: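 Purified PBPs pre-incubated with inhibitor (E. coli PBP3 1.5 μM, 30 min; P. aeruginosa PBP3 0.75 μM, A. baumannii PBP1a 1 μM and PBP3 0.2 μM, 15 min), then Bocillin-FL 0.1 μM (0.05 μM for PBP1a) added; FP read up to 60 min. EC50 = concentration halving bound Bocillin-FL.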

P. aeruginosa CDC-0090 = experiment: microbe, parasite or virus in culture; assay type: cell-based; details: Pseudomonas aeruginosa, CDC0090, read-out: Minimum inhibitory concentration, P. aeruginosa CDC-0090
[2] = tested on: P. aeruginosa (ΔmexAB-oprM); experiment: Broth microdilution MIC in iron-depleted CAMHB (IDM); assay type: cell-based; details: Pseudomonas aeruginosa; iron-depleted CAMHB (IDM); […]; read-out: Minimum inhibitory concentration, P. aeruginosa ΔmexAB-oprM
P. aeruginosa CDC-0110 = experiment: microbe, parasite or virus in culture; assay type: cell-based; details: Pseudomonas aeruginosa, CDC0110, read-out: Minimum inhibitory concentration, P. aeruginosa CDC-0110

SMILES | IC50 [1] | MIC (P. aeruginosa CDC-0090) | MIC [2] | MIC (P. aeruginosa CDC-0110)
O=C(NCCCN1CCN(C(=O)N[C@@H](C(=O)N[C@H]2Cc3ccc(F)c(C(=O)O)c3OB2O)c2cc(F)c(O)c(O)c2Cl)C(=O)C1=O)c1ccc(O)cc1Cl (single isomer, unassigned) [Example 471] | < 10 µM | < 1 µg/mL | < 1 µg/mL | < 1 µg/mL
O=C(NCCCN1CCN(C(=O)N[C@H](C(=O)N[C@H]2Cc3ccc(F)c(C(=O)O)c3OB2O)c2cc(F)c(O)c(O)c2Cl)C(=O)C1=O)c1cccc(O)c1Cl [Example 302, (R)-3-((S)-2-(4-(3-(2-chloro-3-hydroxybenzamido)propyl)-2,3-dioxopiperazine-1-carboxamido)-2-(2-chloro-5-fluoro-3,4-dihydroxyphenyl)acetamido)-7-fluoro-2-hydroxy-3,4-dihydro-2H-benzo[e][1,2]oxaborinine-8-carboxylic acid] | 50 to 250 µM | 32 to 64 µg/mL (≈ 40.3 to 80.6 µM) | 2 to 4 µg/mL (≈ 2.52 to 5.04 µM) | > 128 µg/mL
O=C(O)c1c(F)ccc2c1OB(O)[C@@H](NC(=O)C(NC(=O)N1CCN(C3CCN(C(=O)Nc4cccc(O)c4F)CC3)C(=O)C1=O)c1cc(F)c(O)c(O)c1Cl)C2 (stereo partly drawn) [Example 478, (3R)-3-(2-(2-chloro-5-fluoro-3,4-dihydroxyphenyl)-2-(4-(1-((2-fluoro-3-hydroxyphenyl)carbamoyl)piperidin-4-yl)-2,3-dioxopiperazine-1-carboxamido)acetamido)-7-fluoro-2-hydroxy-3,4-dihydro-2H-benzo[e][1,2]oxaborinine-8-carboxylic acid] | < 10 µM | 2 to 4 µg/mL (≈ 2.44 to 4.88 µM) | < 1 µg/mL | 2 to 4 µg/mL (≈ 2.44 to 4.88 µM)
O=C(NCCCN1CCN(C(=O)N[C@H](C(=O)N[C@H]2Cc3ccc(F)c(C(=O)O)c3OB2O)c2cc(F)c(O)c(O)c2Cl)C(=O)C1=O)c1cc(F)c(O)cc1F (single isomer, unassigned) [Example 472] | < 10 µM | 2 to 4 µg/mL (≈ 2.51 to 5.03 µM) | < 1 µg/mL | < 1 µg/mL
O=C(NCCCN1CCN(C(=O)NC(C(=O)N[C@H]2Cc3ccc(F)c(C(=O)O)c3OB2O)c2cc(F)c(O)c(O)c2Cl)C(=O)C1=O)c1cc(O)cc(O)c1 (stereo partly drawn) [Example 423, (3R)-3-(2-(2-chloro-5-fluoro-3,4-dihydroxyphenyl)-2-(4-(3-(3,5-dihydroxybenzamido)propyl)-2,3-dioxopiperazine-1-carboxamido)acetamido)-7-fluoro-2-hydroxy-3,4-dihydro-2H-benzo[e][1,2]oxaborinine-8-carboxylic acid] | < 10 µM | < 1 µg/mL | < 1 µg/mL | < 1 µg/mL
O=C(NCCCN1CCN(C(=O)NC(C(=O)N[C@H]2Cc3ccc(F)c(C(=O)O)c3OB2O)c2cc(F)c(O)c(O)c2Cl)C(=O)C1=O)c1ccc(F)c(O)c1 (stereo partly drawn) [Example 409, (3R)-3-(2-(2-chloro-5-fluoro-3,4-dihydroxyphenyl)-2-(4-(3-(4-fluoro-3-hydroxybenzamido)propyl)-2,3-dioxopiperazine-1-carboxamido)acetamido)-7-fluoro-2-hydroxy-3,4-dihydro-2H-benzo[e][1,2]oxaborinine-8-carboxylic acid] | < 10 µM | < 1 µg/mL | < 1 µg/mL | < 1 µg/mL
O=C(NCCCN1CCN(C(=O)N[C@@H](C(=O)N[C@H]2Cc3ccc(F)c(C(=O)O)c3OB2O)c2cc(F)c(O)c(O)c2Cl)C1=O)Nc1ccc(O)cc1 [Example 284, (R)-3-((R)-2-(2-chloro-5-fluoro-3,4-dihydroxyphenyl)-2-(3-(3-(3-(4-hydroxyphenyl)ureido)propyl)-2-oxoimidazolidine-1-carboxamido)acetamido)-7-fluoro-2-hydroxy-3,4-dihydro-2H-benzo[e][1,2]oxaborinine-8-carboxylic acid] | < 10 µM | < 1 µg/mL | < 1 µg/mL | < 1 µg/mL
O=C(NCCCN1CCN(C(=O)NC(C(=O)N[C@H]2Cc3ccc(F)c(C(=O)O)c3OB2O)c2cc(F)c(O)c(O)c2Cl)C(=O)C1=O)c1cc(O)cc(F)c1 (stereo partly drawn) [Example 410, (3R)-3-(2-(2-chloro-5-fluoro-3,4-dihydroxyphenyl)-2-(4-(3-(3-fluoro-5-hydroxybenzamido)propyl)-2,3-dioxopiperazine-1-carboxamido)acetamido)-7-fluoro-2-hydroxy-3,4-dihydro-2H-benzo[e][1,2]oxaborinine-8-carboxylic acid] | < 10 µM | < 1 µg/mL | < 1 µg/mL | < 1 µg/mL
O=C(NCCCN1CCN(C(=O)NC(C(=O)N[C@H]2Cc3ccc(F)c(C(=O)O)c3OB2O)c2cc(F)c(O)c(O)c2Cl)C(=O)C1=O)c1c(F)ccc(O)c1F (stereo partly drawn) [Example 413, (3R)-3-(2-(2-chloro-5-fluoro-3,4-dihydroxyphenyl)-2-(4-(3-(2,6-difluoro-3-hydroxybenzamido)propyl)-2,3-dioxopiperazine-1-carboxamido)acetamido)-7-fluoro-2-hydroxy-3,4-dihydro-2H-benzo[e][1,2]oxaborinine-8-carboxylic acid] | < 10 µM | < 1 µg/mL | < 1 µg/mL | < 1 µg/mL
O=C(O)c1c(F)ccc2c1OB(O)[C@@H](NC(=O)C(NC(=O)N1CCN(C3CCN(C(=O)c4c(F)ccc(O)c4F)CC3)C(=O)C1=O)c1cc(F)c(O)c(O)c1Cl)C2 (stereo partly drawn) [Example 308, (3R)-3-(2-(2-chloro-5-fluoro-3,4-dihydroxyphenyl)-2-(4-(1-(2,6-difluoro-3-hydroxybenzoyl)piperidin-4-yl)-2,3-dioxopiperazine-1-carboxamido)acetamido)-7-fluoro-2-hydroxy-3,4-dihydro-2H-benzo[e][1,2]oxaborinine-8-carboxylic acid] | < 10 µM | 2 to 4 µg/mL (≈ 2.43 to 4.87 µM) | < 1 µg/mL | < 1 µg/mL
O=C(NCCCN1CCN(C(=O)N[C@H](C(=O)N[C@H]2Cc3ccc(F)c(C(=O)O)c3OB2O)c2cc(F)c(O)c(O)c2Cl)C(=O)C1=O)c1ccc(O)cc1Cl (single isomer, unassigned) [Example 470] | 10 to 50 µM | 2 to 4 µg/mL (≈ 2.52 to 5.04 µM) | < 1 µg/mL | 8 to 16 µg/mL (≈ 10.1 to 20.1 µM)
O=C(NCCCN1CCN(C(=O)NC(C(=O)N[C@H]2Cc3ccc(F)c(C(=O)O)c3OB2O)c2cc(F)c(O)c(O)c2Cl)C(=O)C1=O)c1c(F)cc(O)cc1Cl (stereo partly drawn) [Example 421, (3R)-3-(2-(2-chloro-5-fluoro-3,4-dihydroxyphenyl)-2-(4-(3-(2-chloro-6-fluoro-4-hydroxybenzamido)propyl)-2,3-dioxopiperazine-1-carboxamido)acetamido)-7-fluoro-2-hydroxy-3,4-dihydro-2H-benzo[e][1,2]oxaborinine-8-carboxylic acid] | < 10 µM | < 1 µg/mL | < 1 µg/mL | < 1 µg/mL
O=C(NCCCN1CCN(C(=O)N[C@H](C(=O)N[C@H]2Cc3ccc(F)c(C(=O)O)c3OB2O)c2cc(F)c(O)c(O)c2Cl)C(=O)C1=O)c1ccnc(F)c1F [Example 299, (R)-3-((S)-2-(2-chloro-5-fluoro-3,4-dihydroxyphenyl)-2-(4-(3-(2,3-difluoroisonicotinamido)propyl)-2,3-dioxopiperazine-1-carboxamido)acetamido)-7-fluoro-2-hydroxy-3,4-dihydro-2H-benzo[e][1,2]oxaborinine-8-carboxylic acid] | 10 to 50 µM | 2 to 4 µg/mL (≈ 2.56 to 5.12 µM) | 2 to 4 µg/mL (≈ 2.56 to 5.12 µM) | 8 to 16 µg/mL (≈ 10.2 to 20.5 µM)
O=C(NCCCN1CCN(C(=O)NC(C(=O)N[C@H]2Cc3ccc(F)c(C(=O)O)c3OB2O)c2cc(F)c(O)c(O)c2Cl)C(=O)C1=O)c1ccc(O)cc1O (stereo partly drawn) [Example 307, (3R)-3-(2-(2-chloro-5-fluoro-3,4-dihydroxyphenyl)-2-(4-(3-(2,4-dihydroxybenzamido)propyl)-2,3-dioxopiperazine-1-carboxamido)acetamido)-7-fluoro-2-hydroxy-3,4-dihydro-2H-benzo[e][1,2]oxaborinine-8-carboxylic acid] | < 10 µM | < 1 µg/mL | < 1 µg/mL | < 1 µg/mL
O=C(NCCCN1CCN(C(=O)NC(C(=O)N[C@H]2Cc3ccc(F)c(C(=O)O)c3OB2O)c2cc(F)c(O)c(O)c2Cl)C(=O)C1=O)c1c(F)cncc1Cl (stereo partly drawn) [Example 403, (3R)-3-(2-(2-chloro-5-fluoro-3,4-dihydroxyphenyl)-2-(4-(3-(3-chloro-5-fluoroisonicotinamido)propyl)-2,3-dioxopiperazine-1-carboxamido)acetamido)-7-fluoro-2-hydroxy-3,4-dihydro-2H-benzo[e][1,2]oxaborinine-8-carboxylic acid] | < 10 µM | 2 to 4 µg/mL (≈ 2.51 to 5.02 µM) | < 1 µg/mL | < 1 µg/mL

— patent US20240270762A1, “PENICILLIN-BINDING PROTEIN INHIBITORS” (priority 2021, published 2024)
